Results reported in PubChem BioAssay (NCI).
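Briefly, cells in 96-well plates were exposed to five compound concentrations for 48 h, and endpoints were estimated by linear interpolation. The concentration for full growth arrest is given as TGI.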

Tests used:
Experiment in all cases: NCI-60 cell line screen, 48 h
NCI-H522 lung = system: NCI-H522 lung
T-47D breast = system: T-47D breast
SW-620 colon = system: SW-620 colon
NCI-H226 lung = system: NCI-H226 lung
SR leukemia = system: SR leukemia
HCT-15 colon = system: HCT-15 colon
HS 578T breast = system: HS 578T breast
UO-31 renal = system: UO-31 renal
SK-OV-3 ovarian = system: SK-OV-3 ovarian
CCRF-CEM leukemia = system: CCRF-CEM leukemia
OVCAR-3 ovarian = system: OVCAR-3 ovarian
SNB-19 CNS = system: SNB-19 CNS
A498 renal = system: A498 renal
MALME-3M melanoma = system: MALME-3M melanoma
ACHN renal = system: ACHN renal
786-0 renal = system: 786-0 renal
MDA-MB-231 breast = system: MDA-MB-231 breast
OVCAR-4 ovarian = system: OVCAR-4 ovarian
HT29 colon = system: HT29 colon
RPMI-8226 leukemia = system: RPMI-8226 leukemia
A549 NSCLC = system: A549 NSCLC
HOP-92 NSCLC = system: HOP-92 NSCLC
MOLT-4 leukemia = system: MOLT-4 leukemia
SK-MEL-5 melanoma = system: SK-MEL-5 melanoma
HOP-62 NSCLC = system: HOP-62 NSCLC
M14 melanoma = system: M14 melanoma
SF-268 CNS = system: SF-268 CNS
NCI/ADR-RES ovarian = system: NCI/ADR-RES ovarian
U251 CNS = system: U251 CNS
IGROV1 ovarian = system: IGROV1 ovarian
SF-295 CNS = system: SF-295 CNS
HCC-2998 colon = system: HCC-2998 colon
OVCAR-5 ovarian = system: OVCAR-5 ovarian
PC-3 prostate = system: PC-3 prostate
BT-549 breast = system: BT-549 breast
COLO 205 colon = system: COLO 205 colon
HL-60(TB) leukemia = system: HL-60(TB) leukemia
SN12C renal = system: SN12C renal
SK-MEL-28 melanoma = system: SK-MEL-28 melanoma
NCI-H23 lung = system: NCI-H23 lung
HCT-116 colon = system: HCT-116 colon
TK-10 renal = system: TK-10 renal
UACC-62 melanoma = system: UACC-62 melanoma
MCF7 breast = system: MCF7 breast
SK-MEL-2 melanoma = system: SK-MEL-2 melanoma
SF-539 CNS = system: SF-539 CNS
DU-145 prostate = system: DU-145 prostate
OVCAR-8 ovarian = system: OVCAR-8 ovarian
MDA-MB-435 = system: MDA-MB-435
NCI-H460 lung = system: NCI-H460 lung
EKVX NSCLC = system: EKVX NSCLC
MDA-N = system: MDA-N
UACC-257 melanoma = system: UACC-257 melanoma
CAKI-1 renal = system: CAKI-1 renal
KM12 colon = system: KM12 colon
RXF 393 renal = system: RXF 393 renal
LOX IMVI melanoma = system: LOX IMVI melanoma
SNB-75 CNS = system: SNB-75 CNS
K-562 leukemia = system: K-562 leukemia

Measured: TGI

COc1cc2c(cc1OC)C13CCN4CC5CCOC6CC(=O)N2C1C6C5CC43 (configuration not stated)
not listed: SNB-75 CNS | K-562 leukemia
> 100 µM: all other assays above

COC(=O)C1(C)C=CC(=O)C2(C)C1C(O)C1OC3CC(c4ccoc4)C(C)=C3C1(C)C2CC(=O)O (configuration not stated)
not listed: NCI-H226 lung | SR leukemia | HT29 colon | HOP-62 NSCLC | RXF 393 renal | K-562 leukemia
> 100 µM: all other assays above

N#C/C(N)=C(\C#N)NC(=O)C(=O)N/C(C#N)=C(\N)C#N
not listed: SK-OV-3 ovarian | HL-60(TB) leukemia
> 100 µM: all other assays above
